Measurements taken from patent US7138414B2, “Heterocyclically substituted benzoylureas, process for their preparation and their use as pharmaceuticals” (Sanofi-Aventis Deutschland GmbH, priority 2002, dated 2006).

molecular target: T1, human glycogen phosphorylase a (Homo sapiens, UniProt P06737); assay: Glycogen phosphorylase a activity test (reverse direction, release of inorganic phosphate); assay type: biochemical; settings: 10 μM test substance; duplicate determinations; 40 min at room temperature
T1 sequence (P06737 2-847 limits assumed): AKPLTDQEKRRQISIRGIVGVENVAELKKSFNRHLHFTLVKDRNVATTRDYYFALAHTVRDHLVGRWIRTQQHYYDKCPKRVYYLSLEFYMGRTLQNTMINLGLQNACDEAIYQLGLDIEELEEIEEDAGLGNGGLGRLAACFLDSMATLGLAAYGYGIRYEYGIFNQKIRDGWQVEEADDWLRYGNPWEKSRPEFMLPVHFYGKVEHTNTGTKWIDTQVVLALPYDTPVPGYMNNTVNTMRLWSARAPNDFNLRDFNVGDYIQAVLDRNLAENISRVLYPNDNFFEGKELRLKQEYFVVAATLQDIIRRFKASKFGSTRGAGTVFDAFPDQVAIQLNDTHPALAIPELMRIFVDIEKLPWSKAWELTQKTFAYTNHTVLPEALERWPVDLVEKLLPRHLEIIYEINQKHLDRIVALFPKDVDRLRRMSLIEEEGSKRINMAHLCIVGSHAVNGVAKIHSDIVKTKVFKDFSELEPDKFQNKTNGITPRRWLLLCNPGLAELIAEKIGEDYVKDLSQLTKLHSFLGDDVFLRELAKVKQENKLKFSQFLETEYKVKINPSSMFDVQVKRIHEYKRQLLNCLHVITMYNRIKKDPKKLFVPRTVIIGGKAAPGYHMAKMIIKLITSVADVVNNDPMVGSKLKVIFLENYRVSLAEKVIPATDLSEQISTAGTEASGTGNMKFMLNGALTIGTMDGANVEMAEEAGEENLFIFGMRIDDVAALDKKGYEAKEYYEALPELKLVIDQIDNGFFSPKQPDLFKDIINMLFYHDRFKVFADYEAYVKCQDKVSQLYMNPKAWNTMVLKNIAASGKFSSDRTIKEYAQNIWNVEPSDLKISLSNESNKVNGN
Protocol: Glycogen Phophorylase a Activity Test
All reactions were carried out as duplicate determinations in 96-well microtiter plates (half area plates, Costar No. 3696), and the change in absorption as a consequence of the formation of the reaction product was measured at the wavelength specified below in a Multiskan Ascent Elisa Reader (Lab Systems, Finland).
In order to measure the GPa enzyme activity in the reverse direction, the conversion of glucose 1-phosphate to glycogen and inorganic phosphate was measured by the general method of Engers et al. (Engers H D, Shechosky S, Madsen N B, Can J Biochem 1970 July;48(7):746–754) with the following modifications: human glycogen phosphorylase a (for example containing 0.76 mg of protein/ml (Aventis Pharma Deutschland GmbH), dissolved in buffer solution E (25 mM β-glycerophosphate, pH 7.0, 1 mM EDTA and 1 mM dithiothreitol) was diluted to a concentration of 10 μg of protein/ml with buffer T (50 mM Hepes, pH 7.0, 100 mM KCl, 2.5 mM EDTA, 2.5 mM MgCl26H2O) and addition of 5 mg/ml of glycogen. Test substances were prepared as a 10 mM solution in DMSO and diluted to 50 μM with buffer solution T. To 10 μl of this solution were added 10 μl of 37.5 mM glucose dissolved in buffer solution T and 5 mg/ml of glycogen, and also 10 μl of a solution of human glycogen phosphorylase a (10 μg of protein/ml) and 20 μl of 2.5 mM glucose 1-phosphate. The base value of the activity of glycogen phosphorylase a in the absence of test substance was determined by adding 10 μl of buffer solution T (0.1% DMSO). The mixture was incubated at room temperature for 40 minutes and the released inorganic phosphate was determined by means of the general method of Drueckes et al. (al (Drueckes P, Schinzel R, Palm D, Anal Biochem 1995 Sep. 1;230(1):173–177) with the following modifications: 50 μl of a stop solution of 7.3 mM of ammonium molybdate, 10.9 mM of zinc acetate, 3.6% of ascorbic acid, 0.9% of SDS are added to 50 μl of the enzyme mixture. After 60 minutes of incubation at 45° C., the absorption was measured at 820 nm. To determine the background absorption, the stop solution was added immediately after the addition of the glucose 1-phosphate solution in a separate reaction. This test was carried out at a concentration of 10 μM of the test substance, in order to determine the respective inhibition of glycogen phosphorylase a by the test substance in vitro.

SMILES | % inhibition at 10 μM [%]
O=C(NC(=O)c1cc(F)c(F)cc1Cl)Nc1ccc(-n2cncn2)cc1F [Example 1c, 1-(2-chloro-4,5-difluorobenzoyl)-3-(2-fluoro-4-[1,2,4]triazol-1-ylphenyl)urea] | 94
COc1cc(-c2nnc(C)[nH]2)ccc1NC(=O)NC(=O)c1ccc(F)cc1Cl [Example 2c, 1-(2-chloro-4-fluorobenzoyl)-3-[2-methoxy-4-(5-methyl-4H-[1,2,4]triazol-3-yl)-phenyl]urea] | 94
COc1cc(-c2nnc(C)[nH]2)ccc1NC(=O)NC(=O)c1cc(F)c(F)cc1Cl [Example 3, 1-(2-chloro-4,5-difluorobenzoyl)-3-[2-methoxy-4-(5-methyl-4H-[1,2,4]triazol-3-yl)-phenyl]urea] | 100
COc1cc(-c2nnc(CC(=O)O)[nH]2)ccc1NC(=O)NC(=O)c1ccc(F)cc1Cl [Example 4d, (5-(4-(3-(2-chloro-4-fluorobenzoyl)ureido)-3-methoxyphenyl)-4H-[1,2,4]triazol-3-yl)acetic acid] | 90
Cc1nnc(-c2ccccc2NC(=O)NC(=O)c2cc(F)c(F)cc2Cl)n1-c1ccccc1C(=O)O [Example 5e, 2-(3-{2-[3-(2-chloro-4,5-difluorobenzoyl)ureido]phenyl}-5-methyl-[1,2,4]triazol-4-yl)benzoic acid] | 9
Cc1nnc(-c2ccc(Cl)c(NC(=O)NC(=O)c3cc(F)c(F)cc3Cl)c2)[nH]1 [Example 6d, 1-(2-chloro-4,5-difluorobenzoyl)-3-[2-chloro-5-(5-methyl-4H-[1,2,4]triazol-3-yl)phenyl]urea] | 100
O=C(NC(=O)c1cc(F)c(F)cc1Cl)Nc1cc(-c2nnc[nH]2)ccc1Cl [Example 6e, 1-(2-chloro-4,5-difluorobenzoyl)-3-[2-chloro-5-(4H-[1,2,4]triazol-3-yl)phenyl]urea] | 100
O=C(NC(=O)c1ccc(F)cc1Cl)Nc1ccc(-c2nnn[nH]2)cc1Cl [Example 7c, 1-(2-chloro-4-fluorobenzoyl)-3-[2-chloro-4-(1H-tetrazol-5-yl)phenyl]urea] | 100
O=C(NC(=O)c1cc(F)c(F)cc1Cl)Nc1ccc(-c2nnn[nH]2)cc1Cl [Example 7d, 1-(2-chloro-4,5-difluorobenzoyl)-3-[2-chloro-4-(1H-tetrazol-5-yl)phenyl)urea] | 100
O=C(NC(=O)c1ccc(F)cc1Cl)Nc1ccc(-c2nnn[nH]2)cc1OC(F)(F)F [Example 7e, 1-(2-chloro-4-fluorobenzoyl)-3-[4-(1H-tetrazol-5-yl)-2-trifluoromethoxyphenyl]-urea] | 100
O=C(NC(=O)c1cc(F)c(F)cc1Cl)Nc1ccc(-c2nnn[nH]2)cc1OC(F)(F)F [Example 7f] | 100
COc1cc(-c2nnc(O)o2)ccc1NC(=O)NC(=O)c1ccc(F)cc1Cl [Example 8c, 1-(2-chloro-4-fluorobenzoyl)-3-[4-(5-hydroxy-[1,3,4]oxadiazol-2-yl)-2-methoxyphenyl]urea] | 96
COc1nn(-c2ccc(NC(=O)NC(=O)c3ccc(F)cc3Cl)c(OC)c2)c(=O)o1 [Example 9e, 1-(2-chloro-4-fluorobenzoyl)-3-(2-methoxy-4-(5-methoxy-2-oxo-3H-[1,3,4]-oxadiazol-3-yl)phenyl)urea] | 20
Cc1nnc(-c2ccc(NC(=O)NC(=O)c3ccc(F)cc3Cl)c(Cl)c2)o1 [Example 9g, 1-(2-chloro-4-fluorobenzoyl)-3-[2-chloro-4-(5-methyl-[1,3,4]oxadiazol-2-yl)phenyl]urea] | 79
Nc1nnc(-c2ccccc2NC(=O)NC(=O)c2cc(F)c(F)cc2Cl)o1 [Example 10c, 1-[2-(5-amino-[1,3,4]oxadiazol-2-yl)phenyl]-3-(2-chloro-4,5-difluorobenzoyl)urea] | 100
O=C(NC(=O)c1cc(F)c(F)cc1Cl)Nc1ccc(-c2noc(=O)[nH]2)cc1OC(F)(F)F [Example 11d, 1-(2-chloro-4,5-difluorobenzoyl)-3-[4-(5-oxo-4,5-dihydro-[1,2,4]oxadiazol-3-yl)-2-trifluoromethoxyphenyl]urea] | 100

SMILES | % inhibition at 10 μM [%]
Cc1cc(=O)n(-c2ccc(NC(=O)NC(=O)c3ccc(F)cc3Cl)c(C)c2)[nH]1 [Example 12c, 1-(2-chloro-4-fluorobenzoyl)-3-[2-methyl-4-(3-methyl-5-oxo-2,5-dihydropyrazol-1-yl)phenyl]urea] | 85
O=C(NC(=O)c1cc(F)c(F)cc1Cl)Nc1ccccc1-c1nc2ccccc2[nH]1 [Example 13a, 1-[2-(1H-benzoimidazol-2-yl)phenyl]-3-(2-chloro-4,5-difluorobenzoyl)urea] | 48
Cc1nnc(-c2ccc(Cl)c(NC(=O)NC(=O)c3cc(F)c(F)cc3Cl)c2)[nH]c1=O [Example 14e, 1-(2-chloro-4,5-difluorobenzoyl)-3-[2-chloro-5-(6-methyl-5-oxo-4,5-dihydro-[1,2,4]triazin-3-yl)phenyl]urea] | 97
Cc1nnc(-c2ccc(Cl)c(NC(=O)NC(=O)c3cc(F)c(F)cc3Cl)c2)nc1C [Example 14f, 1-(2-chloro-4,5-difluorobenzoyl)-3-[2-chloro-5-(5,6-dimethyl-[1,2,4]triazin-3-yl)phenyl]urea] | 100
NC(=O)C1CCCN(c2ccc(F)cc2NC(=O)NC(=O)c2ccc(F)cc2Cl)C1 (stereo not shown) [Example 19] | 1.0
O=C(NC(=O)c1ccc(F)cc1Cl)Nc1cc(F)ccc1N1CCC(C(=O)O)CC1 [Example 20] | 0.04
CS(=O)(=O)c1ccc(N2CCCC(C(=O)O)C2)c(NC(=O)NC(=O)c2cc(F)c(F)cc2Cl)c1 (stereo not shown) [Example 21] | 0.3
CS(=O)(=O)c1ccc(N2CCCC(C(=O)O)C2)c(NC(=O)NC(=O)c2ccc(F)cc2Cl)c1 (stereo not shown) [Example 22] | 1.1
O=C(NC(=O)c1cc(F)c(F)cc1Cl)Nc1cc(C(F)(F)F)ccc1N1CCCC(C(=O)O)C1 (stereo not shown) [Example 23] | 0.03
O=C(NC(=O)c1ccc(F)cc1Cl)Nc1cc(C(F)(F)F)ccc1N1CCCC(C(=O)O)C1 (stereo not shown) [Example 24] | 0.09
Cc1ccc(NC(=O)NC(=O)c2ccc(F)cc2Cl)c(N2CCCC(C(=O)O)C2)c1 (stereo not shown) [Example 25] | 0.06
Cc1ccc(NC(=O)NC(=O)c2cc(F)c(F)cc2Cl)c(N2CCCC(C(=O)O)C2)c1 (stereo not shown) [Example 26] | 0.04
Cc1ccc(N2CCCC(C(=O)O)C2)c(NC(=O)NC(=O)c2ccc(F)cc2Cl)c1 (stereo not shown) [Example 28] | 0.04
O=C(NC(=O)c1ccc(F)cc1Cl)Nc1cc(Cl)ccc1N1CCCC(C(=O)O)C1 (stereo not shown) [Example 32] | 0.03
COC(=O)c1ccc(N2CCCC(C(=O)O)C2)c(NC(=O)NC(=O)c2cc(F)c(F)cc2Cl)c1 (stereo not shown) [Example 33] | 1.0
